In patent US5591741A, “Fungicidal spiroheterocyclic derivatives” (American Cyanamid Company, priority 1993, dated 1997):

Tests used:
[1] = test system: Plasmopara viticola; test: Antisporulant activity against vine downy mildew (PVA); format: in vivo; details: vine leaves, antisporulant foliar spray, 600 ppm, 750 l/ha
In short: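 Cabernet Sauvignon vines (~8 cm) inoculated on lower leaf surfaces with 5×10^4 zoosporangia/ml, held 24 h at 21° C high humidity then 24 h glasshouse. Infected leaves sprayed underside with 600 ppm compound in 1:1 water/acetone, 0.04% Tween 20, 750 l/ha; 96 h glasshouse, 24 h humidity. Sporulating leaf area rated versus control.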

[2] = test system: Alternaria solani; test: Activity against tomato early blight (AS); format: in vivo; details: Table VI; tomato seedlings, contact prophylactic foliar spray, 4 days
In short: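 Foliar contact prophylactic spray on tomato seedlings (cv Outdoor Girl, second true leaf expanded) in acetone/water 50:50 with 0.04% Tween 20; 24 h at 20° C, 40% R.H., then inoculation with 10^4 spores/ml A. solani conidia. Kept moist at 21° C; lesion cover rated 4 days post-inoculation against untreated or diluent-sprayed controls.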

[3] = test system: Botrytis cinerea; test: Direct protectant activity against broad bean grey mould (BCB); format: in vivo; details: direct protectant foliar spray, 600 ppm, 4 days
In short: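 Broad bean plants (cv The Sutton, two leaf pairs) sprayed on upper leaf surfaces at 600 ppm, then inoculated 24 h later with 10^6 conidia/ml. Kept 4 days at 22 °C, high humidity; disease control rated from % leaf area with lesions against untreated or diluent controls.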

[4] = test system: Leptosphaeria nodorum; test: Activity against wheat leafspot (LN); format: in vivo; details: direct therapeutic foliar spray, 600 ppm, 6-8 days
In short: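 Wheat cv Norman at single-leaf stage spray-inoculated with 1.5×10^6 conidia/ml, held 24 h at high humidity, then sprayed therapeutically with test compound at 600 ppm. Kept 6-8 days at 22° C, 70% humidity; lesion density per leaf rated against untreated or diluent-sprayed controls.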

[5] = test system: Erysiphe graminis f.sp. hordei; test: Activity against barley powdery mildew, direct therapeutic (EGT); format: in vivo; details: direct therapeutic foliar spray, 600 ppm, up to 7 days
In short: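 Barley seedlings (cv. Golden Promise, single-leaf stage) were dusted with mildew conidia one day before a therapeutic foliar spray of 600 ppm compound. Plants were kept at 18 °C and 40% humidity for up to 7 days, and sporulating leaf area was rated against untreated or diluent-sprayed controls.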

[6] = test system: Erysiphe graminis f.sp. hordei; test: Direct protectant activity against barley powdery mildew (EGP); format: in vivo; details: direct protectant foliar spray, 8 days
In short: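 Barley seedlings (cv Golden Promise, single-leaf stage) were foliar-sprayed, held 24 h at 18 °C/40% RH, then dusted with mildew conidia. After 8 days at 18 °C/40% RH, sporulating leaf area was scored as a rating against untreated or diluent-sprayed controls.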

[7] = test system: Phytophthora infestans; format: in vivo; details: tomato, direct protectant foliar spray
[8] = test system: Pseudocercosporella herpotrichoides; test: Activity against wheat eyespot in-vitro (PHI); format: cell-based; details: 10 ppm, 10 days, 20° C., mycelial growth
In short: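 P. herpotrichoides mycelial fragments (5×10^4/ml) grown in half-strength PDB with compound at 10 ppm final, added from acetone. Incubated 10 days at 20 °C; mycelial growth rated against untreated or diluent controls.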

[9] = test system: Rhizoctonia solani; test: Activity against Rhizoctonia in-vitro (RSI); format: cell-based; details: 10 ppm, 10 days, 20° C., mycelial growth
In short: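 R. solani mycelial fragments (5×10^4/ml) in half-strength Potato Dextrose Broth with compound added from acetone to 10 ppm final. Mycelial growth assessed after 10 days at 20° C, rated against untreated or diluent control.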

[10] = test system: Venturia inaequalis; test: Activity against apple scab in-vitro (VII); format: cell-based; details: 10 ppm, 10 days, 20° C., mycelial growth
In short: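 Compound in acetone was tested at 10 ppm final in half-strength Potato Dextrose Broth inoculated with V. inaequalis mycelial fragments and spores at 5×10^4 propagules/ml. After 10 days at 20° C, mycelial growth was rated against untreated or diluent controls.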

[11] = test system: Pyricularia oryzae; format: in vivo; details: rice seedlings, direct therapeutic foliar spray, 600 ppm, 4-5 days

Compound	disease control rating PVA [1]	disease control rating AS [2]	disease control rating BCB [3]	disease control rating LN [4]	disease control rating EGT [5]	disease control rating EGP [6]	disease control rating PIP [7]	disease control rating PHI [8]	disease control rating RSI [9]	disease control rating VII [10]	disease control rating PO [11]
CC1(CNC2COC3(CCC(C(C)(C)C)CC3)C2)CCCCC1 (centres unmarked) [Compound 120]	0 (less than 50% disease control)	0 (less than 50% disease control)	1 (about 50-80% disease control)	0 (less than 50% disease control)	2 (greater than 80% disease control)	2 (greater than 80% disease control)	0 (less than 50% disease control)	0 (less than 50% disease control)	1 (about 50-80% disease control)	1 (about 50-80% disease control)	0 (less than 50% disease control)
CC(C)CN(C)C1COC2(CCC(C(C)(C)C)CC2)C1 (centres unmarked) [Compound 121]	0 (less than 50% disease control)	0 (less than 50% disease control)	0 (less than 50% disease control)	0 (less than 50% disease control)	2 (greater than 80% disease control)	2 (greater than 80% disease control)	0 (less than 50% disease control)	0 (less than 50% disease control)	0 (less than 50% disease control)	0 (less than 50% disease control)	0 (less than 50% disease control)
CC(C)N(CCC1CCCCC1)C1COC2(CCC(C(C)(C)C)CC2)C1 (centres unmarked) [Compound 122]	0 (less than 50% disease control)	0 (less than 50% disease control)	0 (less than 50% disease control)	0 (less than 50% disease control)	2 (greater than 80% disease control)	2 (greater than 80% disease control)	0 (less than 50% disease control)	0 (less than 50% disease control)	0 (less than 50% disease control)	0 (less than 50% disease control)	2 (greater than 80% disease control)
CCCN(CC(C)C)C1COC2(CCC(C(C)(C)C)CC2)C1 (centres unmarked) [Compound 123]	0 (less than 50% disease control)	0 (less than 50% disease control)	0 (less than 50% disease control)	0 (less than 50% disease control)	2 (greater than 80% disease control)	2 (greater than 80% disease control)	0 (less than 50% disease control)	0 (less than 50% disease control)	0 (less than 50% disease control)	0 (less than 50% disease control)	1 (about 50-80% disease control)
CC(=CC(=O)CC(C)C)NC1COC2(CCC(C(C)(C)C)CC2)C1 (centres unmarked) [Compound 124]	0 (less than 50% disease control)	0 (less than 50% disease control)	0 (less than 50% disease control)	0 (less than 50% disease control)	2 (greater than 80% disease control)	2 (greater than 80% disease control)	2 (greater than 80% disease control)	0 (less than 50% disease control)	0 (less than 50% disease control)	0 (less than 50% disease control)	0 (less than 50% disease control)
CN(CC1(C)CCCCC1)C1COC2(CCC(C(C)(C)C)CC2)C1 (centres unmarked) [Compound 125]	0 (less than 50% disease control)	0 (less than 50% disease control)	0 (less than 50% disease control)	0 (less than 50% disease control)	2 (greater than 80% disease control)	2 (greater than 80% disease control)	0 (less than 50% disease control)	1 (about 50-80% disease control)	0 (less than 50% disease control)	1 (about 50-80% disease control)	0 (less than 50% disease control)
CCN(CC1(C)CCCCC1)C1COC2(CCC(C(C)(C)C)CC2)C1 (centres unmarked) [Compound 126]	0 (less than 50% disease control)	0 (less than 50% disease control)	0 (less than 50% disease control)	0 (less than 50% disease control)	2 (greater than 80% disease control)	2 (greater than 80% disease control)	0 (less than 50% disease control)	0 (less than 50% disease control)	0 (less than 50% disease control)	1 (about 50-80% disease control)	0 (less than 50% disease control)
CCCN(CC1(C)CCCCC1)C1COC2(CCC(C(C)(C)C)CC2)C1 (centres unmarked) [Compound 127]	0 (less than 50% disease control)	0 (less than 50% disease control)	0 (less than 50% disease control)	0 (less than 50% disease control)	2 (greater than 80% disease control)	2 (greater than 80% disease control)	0 (less than 50% disease control)	0 (less than 50% disease control)	0 (less than 50% disease control)	1 (about 50-80% disease control)	0 (less than 50% disease control)
CN(C1COC2(CCC(C(C)(C)C)CC2)C1)C1CC2CCC1C2 (centres unmarked) [Compound 128]	0 (less than 50% disease control)	2 (greater than 80% disease control)	0 (less than 50% disease control)	0 (less than 50% disease control)	2 (greater than 80% disease control)	2 (greater than 80% disease control)	0 (less than 50% disease control)	0 (less than 50% disease control)	0 (less than 50% disease control)	1 (about 50-80% disease control)	0 (less than 50% disease control)
CCN(C1COC2(CCC(C(C)(C)C)CC2)C1)C1CC2CCC1C2 (centres unmarked) [Compound 129]	0 (less than 50% disease control)	0 (less than 50% disease control)	0 (less than 50% disease control)	0 (less than 50% disease control)	2 (greater than 80% disease control)	2 (greater than 80% disease control)	0 (less than 50% disease control)	0 (less than 50% disease control)	0 (less than 50% disease control)	1 (about 50-80% disease control)	0 (less than 50% disease control)
